A word on the AC50: it is the midpoint of the concentration-response curve, whichever way the signal moves.

The target in test [1] is Prostaglandin G/H synthase 1 (Homo sapiens, UniProt P23219). It is filed as functional.
The target in test [2] is Melanocortin receptor 4 (Homo sapiens, UniProt P32245).
The target of test [3] is Beta-1 adrenergic receptor (Homo sapiens, UniProt P08588). It is filed as functional.
Test [4] has as its target T1, 5-hydroxytryptamine receptor 1A (Homo sapiens, UniProt P08908).
T1 sequence (P08908 whole entry): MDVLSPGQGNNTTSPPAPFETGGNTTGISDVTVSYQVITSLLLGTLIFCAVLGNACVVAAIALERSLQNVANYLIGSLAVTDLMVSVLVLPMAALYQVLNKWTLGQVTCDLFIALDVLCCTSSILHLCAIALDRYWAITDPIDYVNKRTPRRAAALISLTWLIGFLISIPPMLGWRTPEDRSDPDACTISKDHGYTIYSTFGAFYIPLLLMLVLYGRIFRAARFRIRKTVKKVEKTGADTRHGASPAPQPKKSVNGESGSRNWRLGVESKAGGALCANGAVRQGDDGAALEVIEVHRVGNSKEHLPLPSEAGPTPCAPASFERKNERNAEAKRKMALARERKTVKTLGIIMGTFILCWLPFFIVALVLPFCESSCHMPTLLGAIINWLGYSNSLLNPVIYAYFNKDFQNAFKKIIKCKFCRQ
The test is classed as functional, cell-based.

Test [5] deals with T2, Muscarinic acetylcholine receptor M2 (Homo sapiens, UniProt P08172).
T2 sequence (P08172 whole entry): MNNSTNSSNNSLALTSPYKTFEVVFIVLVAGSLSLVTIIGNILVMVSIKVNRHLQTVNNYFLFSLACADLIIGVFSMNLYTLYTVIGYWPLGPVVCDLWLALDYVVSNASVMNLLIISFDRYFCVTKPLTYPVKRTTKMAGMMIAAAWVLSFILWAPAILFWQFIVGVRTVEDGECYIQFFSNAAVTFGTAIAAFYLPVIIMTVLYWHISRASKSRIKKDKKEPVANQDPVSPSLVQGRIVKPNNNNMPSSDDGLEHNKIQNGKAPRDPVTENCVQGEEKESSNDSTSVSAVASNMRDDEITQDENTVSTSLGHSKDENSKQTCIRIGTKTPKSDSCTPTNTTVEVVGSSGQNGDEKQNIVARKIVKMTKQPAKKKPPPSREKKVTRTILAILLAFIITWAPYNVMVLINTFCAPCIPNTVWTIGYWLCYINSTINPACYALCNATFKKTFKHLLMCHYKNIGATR
The test is classed as functional, cell-based.

Test [6] addresses Mu-type opioid receptor (Homo sapiens, UniProt P35372). Description: biochemical. The test is classed as functional.
Test [7] concerns the target T3, Estrogen receptor (Homo sapiens, UniProt P03372).
T3 sequence (P03372 whole entry): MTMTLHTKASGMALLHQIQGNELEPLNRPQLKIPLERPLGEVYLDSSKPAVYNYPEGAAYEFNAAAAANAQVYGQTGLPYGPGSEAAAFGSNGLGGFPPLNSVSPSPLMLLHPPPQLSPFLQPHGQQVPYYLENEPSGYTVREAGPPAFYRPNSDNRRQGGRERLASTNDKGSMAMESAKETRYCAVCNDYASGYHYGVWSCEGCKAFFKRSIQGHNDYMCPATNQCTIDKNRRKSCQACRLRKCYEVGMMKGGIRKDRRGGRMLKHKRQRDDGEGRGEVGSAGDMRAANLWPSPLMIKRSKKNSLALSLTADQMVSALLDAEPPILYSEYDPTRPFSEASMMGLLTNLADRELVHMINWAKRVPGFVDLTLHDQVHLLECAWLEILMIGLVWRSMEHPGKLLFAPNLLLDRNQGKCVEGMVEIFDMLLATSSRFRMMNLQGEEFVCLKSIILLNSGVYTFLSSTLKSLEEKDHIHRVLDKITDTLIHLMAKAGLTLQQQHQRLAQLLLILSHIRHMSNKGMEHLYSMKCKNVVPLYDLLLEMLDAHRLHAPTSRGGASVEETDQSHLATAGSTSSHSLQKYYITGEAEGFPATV

Test [8] deals with Beta-2 adrenergic receptor (Homo sapiens, UniProt P07550).
In test [9] the target is Histamine H3 receptor (Homo sapiens, UniProt Q9Y5N1).
Test [10] has as its target T4, Thromboxane A2 receptor (Homo sapiens, UniProt P21731).
T4 sequence (P21731 whole entry): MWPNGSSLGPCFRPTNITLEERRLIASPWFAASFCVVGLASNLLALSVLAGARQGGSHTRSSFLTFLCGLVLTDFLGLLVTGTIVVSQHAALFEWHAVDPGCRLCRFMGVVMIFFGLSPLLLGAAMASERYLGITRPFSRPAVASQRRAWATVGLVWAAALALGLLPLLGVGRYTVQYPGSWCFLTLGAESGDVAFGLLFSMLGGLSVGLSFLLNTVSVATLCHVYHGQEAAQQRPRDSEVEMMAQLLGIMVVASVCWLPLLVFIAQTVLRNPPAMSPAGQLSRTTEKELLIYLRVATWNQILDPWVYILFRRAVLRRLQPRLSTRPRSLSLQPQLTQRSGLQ

The target in test [11] is T3, Estrogen receptor. The source holds these as a separate data set.
For test [12], the target named is Kappa-type opioid receptor (Homo sapiens, UniProt P41145).
Test [13] concerns the target Sodium-dependent serotonin transporter (Homo sapiens, UniProt P31645).

Chain of Beta-1 adrenergic receptor (P08588 whole entry): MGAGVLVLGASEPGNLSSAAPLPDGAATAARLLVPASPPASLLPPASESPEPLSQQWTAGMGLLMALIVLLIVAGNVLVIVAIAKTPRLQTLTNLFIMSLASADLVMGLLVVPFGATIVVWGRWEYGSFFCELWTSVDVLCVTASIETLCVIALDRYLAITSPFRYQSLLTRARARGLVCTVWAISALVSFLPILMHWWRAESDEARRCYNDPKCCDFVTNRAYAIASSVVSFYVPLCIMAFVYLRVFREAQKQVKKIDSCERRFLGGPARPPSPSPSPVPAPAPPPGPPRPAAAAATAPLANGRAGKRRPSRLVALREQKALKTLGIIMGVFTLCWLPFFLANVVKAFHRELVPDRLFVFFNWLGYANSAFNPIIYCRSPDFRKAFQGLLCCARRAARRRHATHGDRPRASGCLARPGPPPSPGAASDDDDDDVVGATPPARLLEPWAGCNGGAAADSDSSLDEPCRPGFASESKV
Chain of Mu-type opioid receptor (P35372 whole entry): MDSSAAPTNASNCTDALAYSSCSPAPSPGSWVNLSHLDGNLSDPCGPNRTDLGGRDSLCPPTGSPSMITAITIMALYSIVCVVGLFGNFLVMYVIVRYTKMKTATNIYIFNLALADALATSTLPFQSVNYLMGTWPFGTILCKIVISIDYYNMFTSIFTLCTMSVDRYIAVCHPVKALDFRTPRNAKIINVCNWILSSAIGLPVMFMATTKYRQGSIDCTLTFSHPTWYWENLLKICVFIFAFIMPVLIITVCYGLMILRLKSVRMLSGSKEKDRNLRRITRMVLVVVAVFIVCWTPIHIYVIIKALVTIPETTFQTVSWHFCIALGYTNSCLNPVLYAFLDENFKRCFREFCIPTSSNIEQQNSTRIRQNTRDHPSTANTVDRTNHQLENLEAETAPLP
Chain of Melanocortin receptor 4 (P32245 whole entry): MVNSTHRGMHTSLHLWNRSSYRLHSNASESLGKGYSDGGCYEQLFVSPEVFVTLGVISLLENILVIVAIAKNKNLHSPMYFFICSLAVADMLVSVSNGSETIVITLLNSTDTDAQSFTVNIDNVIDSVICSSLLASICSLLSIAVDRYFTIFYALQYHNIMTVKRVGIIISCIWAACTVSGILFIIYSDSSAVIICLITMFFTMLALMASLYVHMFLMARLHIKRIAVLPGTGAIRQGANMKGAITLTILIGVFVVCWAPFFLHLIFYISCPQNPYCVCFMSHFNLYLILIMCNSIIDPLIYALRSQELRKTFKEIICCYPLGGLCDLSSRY
Chain of Histamine H3 receptor (Q9Y5N1 whole entry): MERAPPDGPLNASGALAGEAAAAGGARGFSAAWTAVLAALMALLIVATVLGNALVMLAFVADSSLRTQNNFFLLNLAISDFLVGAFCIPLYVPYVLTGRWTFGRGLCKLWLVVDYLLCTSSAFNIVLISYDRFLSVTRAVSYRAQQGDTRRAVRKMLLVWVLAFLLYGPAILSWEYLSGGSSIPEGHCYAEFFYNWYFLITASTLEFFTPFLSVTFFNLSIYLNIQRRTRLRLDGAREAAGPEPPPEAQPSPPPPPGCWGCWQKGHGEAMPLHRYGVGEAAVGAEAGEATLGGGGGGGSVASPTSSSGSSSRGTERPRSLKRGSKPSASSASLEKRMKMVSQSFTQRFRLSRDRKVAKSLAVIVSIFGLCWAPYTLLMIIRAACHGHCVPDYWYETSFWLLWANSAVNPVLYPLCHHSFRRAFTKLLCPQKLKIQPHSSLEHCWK
Chain of Beta-2 adrenergic receptor (P07550 whole entry): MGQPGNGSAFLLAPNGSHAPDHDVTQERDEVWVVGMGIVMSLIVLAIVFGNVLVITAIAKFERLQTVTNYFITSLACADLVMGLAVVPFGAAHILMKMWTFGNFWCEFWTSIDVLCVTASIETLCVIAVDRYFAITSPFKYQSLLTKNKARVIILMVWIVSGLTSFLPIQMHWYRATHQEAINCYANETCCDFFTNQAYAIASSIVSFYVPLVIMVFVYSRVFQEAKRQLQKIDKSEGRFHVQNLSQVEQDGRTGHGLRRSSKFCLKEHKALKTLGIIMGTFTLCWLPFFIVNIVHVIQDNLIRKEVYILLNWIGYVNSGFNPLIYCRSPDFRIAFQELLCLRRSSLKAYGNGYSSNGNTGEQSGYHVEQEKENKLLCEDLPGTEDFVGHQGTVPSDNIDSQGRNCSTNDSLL
Chain of Kappa-type opioid receptor (P41145 whole entry): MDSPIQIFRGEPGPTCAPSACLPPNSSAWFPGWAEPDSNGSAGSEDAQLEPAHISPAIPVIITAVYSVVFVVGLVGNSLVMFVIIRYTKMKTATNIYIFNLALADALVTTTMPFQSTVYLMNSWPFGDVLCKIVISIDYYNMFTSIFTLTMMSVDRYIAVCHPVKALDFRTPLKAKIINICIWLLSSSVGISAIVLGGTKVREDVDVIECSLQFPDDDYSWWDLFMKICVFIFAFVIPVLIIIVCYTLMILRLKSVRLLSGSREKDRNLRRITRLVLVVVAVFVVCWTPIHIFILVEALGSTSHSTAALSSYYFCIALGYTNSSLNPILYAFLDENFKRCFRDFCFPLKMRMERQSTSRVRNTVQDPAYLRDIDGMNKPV
Chain of Prostaglandin G/H synthase 1 (P23219 whole entry): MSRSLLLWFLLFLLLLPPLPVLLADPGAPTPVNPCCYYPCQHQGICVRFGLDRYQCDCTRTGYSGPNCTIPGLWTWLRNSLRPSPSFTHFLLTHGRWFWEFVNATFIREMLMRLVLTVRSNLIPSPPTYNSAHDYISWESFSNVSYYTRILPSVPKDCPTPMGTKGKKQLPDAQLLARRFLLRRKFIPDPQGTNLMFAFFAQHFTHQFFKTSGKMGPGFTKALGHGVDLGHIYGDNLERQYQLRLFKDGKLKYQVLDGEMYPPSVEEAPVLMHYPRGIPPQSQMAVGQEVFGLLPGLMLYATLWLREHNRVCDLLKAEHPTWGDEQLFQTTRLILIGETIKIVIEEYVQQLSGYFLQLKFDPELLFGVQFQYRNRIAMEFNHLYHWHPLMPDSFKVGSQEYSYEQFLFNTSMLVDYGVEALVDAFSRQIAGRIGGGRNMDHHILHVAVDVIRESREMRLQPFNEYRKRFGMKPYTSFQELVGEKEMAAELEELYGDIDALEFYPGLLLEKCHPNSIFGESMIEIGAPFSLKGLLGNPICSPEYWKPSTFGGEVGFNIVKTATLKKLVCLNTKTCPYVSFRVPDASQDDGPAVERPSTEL
Chain of Sodium-dependent serotonin transporter (P31645 whole entry): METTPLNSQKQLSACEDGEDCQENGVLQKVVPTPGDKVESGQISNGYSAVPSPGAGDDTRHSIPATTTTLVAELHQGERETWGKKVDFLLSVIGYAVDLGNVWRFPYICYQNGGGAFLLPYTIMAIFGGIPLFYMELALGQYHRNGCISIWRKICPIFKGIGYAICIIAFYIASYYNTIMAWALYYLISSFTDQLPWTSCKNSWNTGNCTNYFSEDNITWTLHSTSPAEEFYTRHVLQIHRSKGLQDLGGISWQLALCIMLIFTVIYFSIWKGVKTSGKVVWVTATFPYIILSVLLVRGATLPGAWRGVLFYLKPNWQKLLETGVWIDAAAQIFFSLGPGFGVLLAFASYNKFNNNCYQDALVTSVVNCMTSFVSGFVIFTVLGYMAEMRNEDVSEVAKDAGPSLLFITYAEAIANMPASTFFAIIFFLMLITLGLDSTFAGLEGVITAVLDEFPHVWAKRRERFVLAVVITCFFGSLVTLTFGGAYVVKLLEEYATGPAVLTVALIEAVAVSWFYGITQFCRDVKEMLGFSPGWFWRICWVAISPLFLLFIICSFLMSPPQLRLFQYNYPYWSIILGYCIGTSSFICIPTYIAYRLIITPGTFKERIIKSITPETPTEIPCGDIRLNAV

Consider `Nc1nc(N)c2nc(-c3ccccc3)c(N)nc2n1`, for which the AC50 in test [1] was greater than 30 µM; in test [2] it was greater than 10 µM; in test [3] it was greater than 30 µM; in test [4] it was greater than 10 µM; in [5] it was greater than 30 µM; in test [6], greater than 30 µM. Besides, the AC50 in [7], in test [8], in [9], in test [10], in test [11] and in [12] was greater than 30 µM each time.
As to `Oc1ncnc2[nH]ncc12` [ALLOPURINOL], the AC50 in test [1] was greater than 30 µM; in test [2], greater than 30 µM; in test [3], greater than 10 µM; in test [4] it was greater than 10 µM; in test [5] it was greater than 10 µM; in [7] it was greater than 30 µM. Also, the AC50 in [8] was greater than 10 µM; in test [9], greater than 30 µM; in test [10], greater than 30 µM; in test [11], greater than 30 µM; in test [12], greater than 10 µM.
Take `O=C1c2c(O)c(=O)ccn2N([C@@H]2c3ccccc3SCc3c2ccc(F)c3F)[C@@H]2COCCN12` [BALOXAVIR]: the AC50 in test [1], in test [13], in [9] and in test [11] was greater than 30 µM in each case.
Consider `C(=N\NC1=NCCN1)/c1c2ccccc2c(/C=N/NC2=NCCN2)c2ccccc12` [BISANTRENE], for which the half-maximal activity concentration (AC50) in test [1] is greater than 30 µM; in [13], 2.25 µM; in test [9] it was greater than 30 µM; in test [11], greater than 30 µM.
With `CCO/N=C(\C(=O)N[C@@H]1C(=O)N2C(C(=O)[O-])=C(Sc3nc(-c4cc[n+](C)cc4)cs3)CS[C@H]12)c1nsc(N)n1` [CEFTAROLINE], the AC50 in test [1], in test [13], in test [9] and in [11] was greater than 30 µM throughout.
In the case of `C[N+](C)(C)CCCCCCCCCC[N+](C)(C)C` [DECAMETHONIUM], the AC50 in [1], in test [13], in test [9] and in [11] was greater than 30 µM throughout.
`O=C1c2ccccc2C(=O)C1C(=O)C(c1ccccc1)c1ccccc1` [DIPHENADIONE]: the AC50 in test [1] is 20.4 µM; in test [13], greater than 30 µM; in test [9], greater than 30 µM.
In the case of `CCOC(=O)c1ccc(O)cc1` [ETHYLPARABEN], the AC50 in test [1], in [13], in test [9] and in test [11] was greater than 30 µM in each case.
Take `O=C1[C@H](CC[C@H](O)c2ccc(F)cc2)[C@@H](c2ccc(O)cc2)N1c1ccc(F)cc1` [EZETIMIBE]: the AC50 in [1] is 6.72 µM; in [13], greater than 30 µM; in [9] it was greater than 30 µM; in test [11], greater than 30 µM.
For `O=C(COc1ccc(Cl)cc1)N1CCN(Cc2ccc3c(c2)OCO3)CC1` [FIPEXIDE], the AC50 is greater than 30 µM in [1], 29.2 µM in test [13], greater than 30 µM in [9] and greater than 30 µM in test [11].
Consider `CCC(=O)c1c(O)cc(O)cc1O` [FLOPROPIONE], for which the AC50 in test [1], in test [13], in test [9] and in test [11] was greater than 30 µM each time.
For the compound `CC(C)C(=O)Nc1ccc([N+](=O)[O-])c(C(F)(F)F)c1` [FLUTAMIDE], the half-maximal activity concentration (AC50) is greater than 30 µM in [1]; greater than 30 µM in test [2]; greater than 10 µM in test [3]; greater than 10 µM in test [4]; greater than 10 µM in test [5]; greater than 30 µM in test [6]. The AC50 in [7] was greater than 10 µM; in [8], greater than 10 µM; in test [9], greater than 30 µM; in test [10] it was greater than 30 µM; in test [11], greater than 30 µM; in test [12] it was greater than 10 µM.
Take `CN1CCCC(CN2c3ccccc3Sc3ccccc32)C1` (stereo not drawn) [MEPAZINE]: the values for the AC50 in test [1], in test [9] and in [11] were greater than 30 µM, 22.3 µM and greater than 30 µM, respectively.
`Sc1ncnc2nc[nH]c12` [MERCAPTOPURINE ANHYDROUS]: the AC50 in [1] is 14.6 µM; in test [9], greater than 30 µM; in test [11], greater than 30 µM.
Take `C[N+]1(C)[C@@H]2C[C@@H](OC(=O)[C@H](CO)c3ccccc3)C[C@H]1[C@@H]1O[C@@H]12` [METHSCOPOLAMINE]: the concentration at half-maximal activity (AC50) in test [1], in test [9] and in test [11] was greater than 30 µM throughout.
As for `CC(=O)Oc1c(C)cc(OCC(O)CNC(C)C)c(C)c1C` (stereo not drawn) [METIPRANOLOL], the AC50 in test [1], in test [13], in test [9] and in [11] was greater than 30 µM each time.
For the compound `CC(N/C(=N\C#N)Nc1ccncc1)C(C)(C)C` (stereo not drawn) [PINACIDIL ANHYDROUS], the half-maximal activity concentration (AC50) in test [1] was greater than 30 µM; in [13], greater than 30 µM; in [9], greater than 10 µM.
Regarding `CCc1ccc(CCOc2ccc(CC3SC(=O)NC3=O)cc2)nc1` (stereo not drawn) [PIOGLITAZONE], the AC50 in [1] is greater than 30 µM; in test [2] it was greater than 30 µM; in test [3], greater than 10 µM; in [4], greater than 10 µM; in test [5] it was greater than 10 µM; in [6], greater than 30 µM. In addition, the AC50 was greater than 30 µM in test [7]; greater than 10 µM in [8]; greater than 3 µM in [9]; greater than 30 µM in test [10]; greater than 30 µM in test [11]; greater than 10 µM in test [12].
On to `CC(O)CO` (stereo not drawn) [PROPYLENE GLYCOL], for which the AC50 in [1], in test [9] and in [11] was greater than 30 µM each time.
With `NC(=O)c1cnccn1` [PYRAZINAMIDE], the AC50 in [1] is greater than 30 µM; in [2], 10.2 µM; in test [3], greater than 30 µM; in test [4], greater than 10 µM; in [5] it was greater than 30 µM; in test [6], greater than 30 µM. Further, the AC50 in test [7], in test [8], in [9], in test [10], in test [11] and in test [12] was greater than 30 µM each time.
With `CN(C)C(=O)Oc1ccc[n+](C)c1` [PYRIDOSTIGMINE], the AC50 in [1], in test [13], in test [9] and in test [11] was greater than 30 µM throughout.
As for `CS(=O)(=O)c1ccc([C@@H](O)[C@@H](CO)NC(=O)C(Cl)Cl)cc1` [THIAMPHENICOL], the AC50 in test [1], in test [3], in [4], in test [5], in test [6] and in [7] was greater than 30 µM in each case. Moreover, the AC50 in test [8], in test [9], in test [10], in test [11] and in test [12] was greater than 30 µM each time.

Source of the values: ChEMBL document CHEMBL5291721, “A preclinical secondary pharmacology resource illuminates target-adverse drug reaction associations of marketed drugs” (Nat Commun, 2023).
